Reference: ChEMBL document CHEMBL4308916, “Leucoflavonine, a new bioactive racemic flavoalkaloid from the leaves of Leucosceptrum canum” (Bioorg Med Chem, 2019)
Activity calls are given as the source filed them. No cut-off for these calls is given here.

Columns and labels:
Acetylcholinesterase [1] = target: T1, Acetylcholinesterase (Homo sapiens, UniProt P22303); assay: Inhibition of AChE (unknown origin) using acetylthiocholine iodide as substrate preincubated for 20 mins followed by substrate addition and measured every 30 secs for 1 hr by Ellman's assay
T1 sequence (P22303 whole entry): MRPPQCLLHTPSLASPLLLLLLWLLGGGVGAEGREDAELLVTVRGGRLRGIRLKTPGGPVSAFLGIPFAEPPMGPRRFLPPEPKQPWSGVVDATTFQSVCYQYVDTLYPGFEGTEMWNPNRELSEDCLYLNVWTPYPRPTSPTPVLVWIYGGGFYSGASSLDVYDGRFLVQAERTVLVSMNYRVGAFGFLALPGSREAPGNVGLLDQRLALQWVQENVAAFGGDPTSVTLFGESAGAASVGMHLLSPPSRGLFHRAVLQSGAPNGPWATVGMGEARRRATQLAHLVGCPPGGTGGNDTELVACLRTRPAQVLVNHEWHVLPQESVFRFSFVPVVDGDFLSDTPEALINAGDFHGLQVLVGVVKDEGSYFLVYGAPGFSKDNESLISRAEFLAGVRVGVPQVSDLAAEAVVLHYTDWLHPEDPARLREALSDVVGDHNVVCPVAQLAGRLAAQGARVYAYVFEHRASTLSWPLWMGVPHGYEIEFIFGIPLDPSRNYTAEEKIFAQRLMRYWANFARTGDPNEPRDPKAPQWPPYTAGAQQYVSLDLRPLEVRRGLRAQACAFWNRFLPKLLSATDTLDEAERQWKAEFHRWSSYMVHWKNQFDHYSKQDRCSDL

RAW264.7 [2] = assay: Anti-inflammatory activity in mouse RAW264.7 cells assessed as reduction in LPS-induced IL-6 production after 48 hrs by ELISA; format: functional, cell-based; conditions: RAW264.7, 48 h
NCI-H1975 [3] = assay: cells; conditions: Homo sapiens, NCI-H1975, 72 h
Description: Cytotoxicity against human NCI-H1975 cells after 72 hrs by MTT assay

Jurkat [4] = assay: Immunosuppressive activity in human Jurkat cells assessed as reduction in PHA + PMA-induced IL-2 production at 20 uM after 48 hrs by ELISA; format: functional, cell-based
Jurkat [5] = assay: cells; conditions: Homo sapiens, 48 h
Description: Immunosuppressive activity in human Jurkat cells assessed as reduction in PHA + PMA-induced IL-2 production after 48 hrs by ELISA

RAW264.7 [6] = assay: Anti-inflammatory activity in mouse RAW264.7 cells assessed as reduction in LPS-induced TNF-alpha production after 48 hrs by ELISA; format: functional, cell-based; conditions: RAW264.7, 48 h
PC-9 [7] = assay: Cytotoxicity against human PC9 cells after 72 hrs by MTT assay; format: cell-based; conditions: PC-9, 72 h
HepG2 [8] = assay: cells; conditions: Homo sapiens, HepG2, 72 h
Description: Cytotoxicity against human HepG2 cells after 72 hrs by MTT assay

Acetylcholinesterase [9] = target: T1, Acetylcholinesterase; assay: Inhibition of AChE (unknown origin) at 250 uM using acetylthiocholine iodide as substrate preincubated for 20 mins followed by substrate addition and measured every 30 secs for 1 hr by Ellman's assay
NCI-H1975 [10] = assay: Cytotoxicity against human NCI-H1975 cells at 80 uM after 72 hrs by MTT assay; format: cell-based; conditions: nci-h1975, 72 h
PC-9 [11] = assay: Cytotoxicity against human PC9 cells at 80 uM after 72 hrs by MTT assay; format: cell-based; conditions: pc-9, 72 h
HepG2 [12] = assay: Cytotoxicity against human HepG2 cells at 80 uM after 72 hrs by MTT assay; format: cell-based; conditions: hepg2, 72 h

Structure (SMILES) | IC50 (Acetylcholinesterase [1]) | IC50 (RAW264.7 [2]) | IC50 (NCI-H1975 [3]) | inhibition (Jurkat [4]) | IC50 (Jurkat [5]) | IC50 (RAW264.7 [6]) | IC50 (PC-9 [7]) | IC50 (HepG2 [8]) | inhibition (Acetylcholinesterase [9]) | Activity (NCI-H1975 [10]) | Activity (PC-9 [11]) | Activity (HepG2 [12])
COc1ccc(-c2cc(=O)c3c(O)c(OC)c(O)cc3o2)cc1 [PECTOLINARIGENIN] | > 250 µM | > 20 µM | 76.6 µM | inactive | > 20 µM | > 20 µM | > 80 µM | 18.1 µM | 37.8% |  |  | 
COc1ccc(-c2cc(=O)c3cc(OC)c(O)c([C@@H]4CCC(=O)N4)c3o2)cc1 | 68 µM | > 20 µM | > 80 µM |  | > 20 µM | > 20 µM | > 80 µM | > 80 µM |  | Non-Toxic | Non-Toxic | Non-Toxic
C[C@@H]1C[C@H]2[C@@H]3CCC4=CC(=O)C=C[C@]4(C)[C@@]3(F)[C@@H](O)C[C@]2(C)[C@@]1(O)C(=O)CO [DEXAMETHASONE] |  | 9.4 µM |  |  |  | 1.2 µM |  |  |  |  |  | 
CC(=O)O[C@H]1C(=O)[C@@]2(C)[C@H]([C@H](OC(=O)c3ccccc3)[C@]3(O)C[C@H](OC(=O)[C@H](O)[C@@H](NC(=O)c4ccccc4)c4ccccc4)C(C)=C1C3(C)C)[C@]1(OC(C)=O)CO[C@@H]1C[C@@H]2O [PACLITAXEL] |  |  | 3.9 µM |  |  |  | 3.7 µM | 10.3 µM |  |  |  | 
COc1ccc(-c2cc(=O)c3cc(OC)c(O)c([C@H]4CCC(=O)N4)c3o2)cc1 | 18.3 µM | > 20 µM | > 80 µM |  | 16.5 µM | > 20 µM | > 80 µM | 52.9 µM |  |  |  | 
